“Also recorded” adds a separate entry of the source. Where two headings read alike, the source gives them in different places.
Tests used:
[1] = test system: rat brain nAChRs that bind nicotine with high affinity; details: reference 7; cited from earlier work
α7 receptors = molecular target: T1, α7 receptors (Homo sapiens, UniProt P36544); format: cell-based; details: oocytes expressing α7 receptors
T1 construct: expressed in transfected cells; host or cells: Xenopus laevis oocytes (mRNA injection)
Description: (§1) ACh control applications alternated with test compound applications.

α4β2 receptors = molecular target: T2, α4β2 receptors (Homo sapiens, UniProt P17787+P43681); format: cell-based; details: for agonist activity/potency on α4β2 receptors (in words): oocytes expressing α4β2 receptors
T2 construct: expressed in transfected cells; host or cells: Xenopus laevis oocytes (mRNA injection, alpha4:beta2 1:1)
Description: as §1

[2] = test system: α6/α3 chimera/β2 receptors; details: oocytes, FIG. 2.13
Description: Mature female Xenopus laevis were anesthetized by immersion in a 1.5 g/L solution of aminobenzoic acid ethyl ester (MP Biomedicals, LLC, Solon, Ohio) for 30 min. The excised ovary bag was placed into calcium-free Barth's saline (88 mM NaCl, 1 mM KCl, 2.38 mM NaHCO3, 0.82 mM MgSO4, 15 mM HEPES, 0.012 mg/ml tetracycline hydrochloride, pH 7.3+−0.1), opened with forceps and washed three times with Barth's saline. Then 60 ml collagenase solution (76 mg Sigma type XX collagenase dissolved in Ca^2+-free Barth saline) was added and the oocyte containing mass was shaken for 2 hours at 5° C. After washing three times with Ca^2+-free Barth's and then three times with Barth's solution containing calcium, the oocytes were evaluated under a stereo microscope. Healthy stage 5 oocytes were transferred into new dishes and incubated in 17° C. for overnight. Oocytes were injected with either 50 nl of alpha7 mRNA solution (20 ng) or 50 nl of a mixture of alpha4 and beta2 (1:1, 10 ng) mRNA, using a Drummond Nanoject II Auto-Injector. The cells were cultured in Barth's saline at 17° C. for 5-16 days, with daily changes in the saline. […] Membrane currents were recorded with an AxoClamp-2 (Axon Instruments, Union City, Calif.), filtered at 10 kHz and sampled at 5 kHz. […]

[3] = test system: alpha7 receptors relative to alpha4beta2 nAChRs; details: Martin et al., 2004; cited from earlier work
[4] = listed as 3-(((2S,5S)-1,5-Dimethylpyrrolidine-2-yl)methoxy)-pyridine

T2 sequence (P43681 29-627 limits assumed): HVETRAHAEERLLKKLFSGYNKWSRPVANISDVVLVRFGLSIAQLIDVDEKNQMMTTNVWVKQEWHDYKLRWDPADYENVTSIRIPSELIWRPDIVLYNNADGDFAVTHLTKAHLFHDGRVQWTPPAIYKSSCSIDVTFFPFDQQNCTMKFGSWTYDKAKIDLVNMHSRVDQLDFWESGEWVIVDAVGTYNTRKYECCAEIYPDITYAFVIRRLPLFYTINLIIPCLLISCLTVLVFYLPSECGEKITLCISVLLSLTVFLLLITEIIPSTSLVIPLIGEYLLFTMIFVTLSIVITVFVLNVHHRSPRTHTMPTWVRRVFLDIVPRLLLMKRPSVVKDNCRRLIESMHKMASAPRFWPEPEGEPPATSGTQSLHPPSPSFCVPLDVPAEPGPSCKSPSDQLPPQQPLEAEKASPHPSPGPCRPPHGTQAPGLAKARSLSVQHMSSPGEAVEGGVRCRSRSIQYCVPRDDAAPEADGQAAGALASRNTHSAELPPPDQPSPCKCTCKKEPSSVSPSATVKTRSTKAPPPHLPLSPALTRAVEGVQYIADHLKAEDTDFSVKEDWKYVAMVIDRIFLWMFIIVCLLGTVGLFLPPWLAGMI
T2 sequence (P17787 26-502): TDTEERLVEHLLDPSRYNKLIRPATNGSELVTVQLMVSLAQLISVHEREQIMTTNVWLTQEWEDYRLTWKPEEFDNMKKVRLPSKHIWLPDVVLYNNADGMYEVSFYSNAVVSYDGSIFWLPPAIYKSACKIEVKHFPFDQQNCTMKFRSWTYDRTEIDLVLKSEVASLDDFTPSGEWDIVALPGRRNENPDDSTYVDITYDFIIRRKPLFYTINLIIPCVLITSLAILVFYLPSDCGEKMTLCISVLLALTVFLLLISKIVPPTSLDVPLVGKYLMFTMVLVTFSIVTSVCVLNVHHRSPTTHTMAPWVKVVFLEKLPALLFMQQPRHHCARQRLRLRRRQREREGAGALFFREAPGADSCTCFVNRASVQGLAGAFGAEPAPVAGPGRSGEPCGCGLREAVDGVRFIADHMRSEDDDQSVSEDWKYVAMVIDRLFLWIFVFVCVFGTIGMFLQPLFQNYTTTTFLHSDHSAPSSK
T1 sequence (P36544 23-502): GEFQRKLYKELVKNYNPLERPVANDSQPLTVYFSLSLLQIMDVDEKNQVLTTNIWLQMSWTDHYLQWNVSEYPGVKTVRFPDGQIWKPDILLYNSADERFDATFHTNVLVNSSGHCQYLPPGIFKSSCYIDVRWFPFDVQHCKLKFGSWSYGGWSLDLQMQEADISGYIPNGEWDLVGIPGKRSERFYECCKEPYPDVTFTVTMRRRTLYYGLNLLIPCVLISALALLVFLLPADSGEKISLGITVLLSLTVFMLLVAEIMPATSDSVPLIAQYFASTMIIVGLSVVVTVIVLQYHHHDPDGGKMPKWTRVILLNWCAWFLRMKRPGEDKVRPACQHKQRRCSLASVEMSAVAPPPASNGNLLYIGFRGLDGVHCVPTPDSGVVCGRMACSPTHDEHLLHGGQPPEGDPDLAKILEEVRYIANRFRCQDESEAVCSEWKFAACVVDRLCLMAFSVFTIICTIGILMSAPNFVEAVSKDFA

In the case of CN1CCCC1(C)c1cccnc1 (racemic) [2′ methyl-nicotine, (±)-2′-Methylnicotine], the “displacement of radiolabeled methylcarbamylcholine binding (in words)” value [1] is given as “displace the binding”, the “agonist activity/potency on α7 receptors (in words)” value (α7 receptors) is given as “excellent agonist activity” and the “increase in potency at α7 nAChR relative to nicotine” value (α7 receptors; FIG. 2.10) is given as 6.7 fold. For the same compound, the “agonist activity/potency on α4β2 receptors (in words)” value (α4β2 receptors) was “excellent agonist activity”.

In the case of CCC1(c2cccnc2)CCCN1C (racemic) [2′-ethyl-nicotine, (±)-2′-Ethylnicotine], the “displacement of radiolabeled methylcarbamylcholine binding (in words)” value [1] is listed as “displace the binding”.

With C[C@H]1C[C@H](c2cccnc2)N1C (relative stereo) [Trans-3-(1,4-Dimethylazetidin-2-yl)pyridine] the “potency of trans- versus cis-diastereomers on α4β2 receptors (in words)” value (α4β2 receptors; oocytes, FIG. 3.4) was “significantly more potent than the cis-diastereomers”.

In the case of C[C@@H]1CC[C@@H](COc2cccnc2)N1C [3-(((2S,5R)-1,5-Dimethylpyrrolidin-2-yl)methoxy)pyridine], the “agonist activity/potency on α4β2 receptors (in words)” value (α4β2 receptors) is reported as “essentially no agonistic activity”.

In the case of C[C@H]1CC[C@@H](COc2cccnc2)N1C [3-(((2S,5S)-1,5-Dimethylpyrrolidin-2-yl)methoxy)pyridine], the “agonist activity/potency on α7 receptors (in words)” value (α7 receptors; [4]) is reported as “high potency; also recorded: low activity”, the “agonist activity/potency on α4β2 receptors (in words)” value (α4β2 receptors) is reported as “essentially no agonistic activity” and the “agonist activity/potency on α4β2 receptors (in words)” value (α4β2 receptors; [4]) is reported as “low activity”.

For C[C@H]1CC[C@@H](c2cccnc2)N1C [5′ Cis-Me-Nic], the “response of α6/α3 chimera/β2 receptors (in words)” value [2] was “essentially identical manner” and the “agonist activity/potency on α4β2 receptors (in words)” value (α4β2 receptors) was “inactive”.

In the case of C[C@@H]1CC[C@@H](c2cccnc2)N1C [5′ Trans-Me-Nic], the “response of α6/α3 chimera/β2 receptors (in words)” value [2] is reported as “essentially identical manner” and the “agonist activity/potency on α4β2 receptors (in words)” value (α4β2 receptors) is reported as “inactive”.

In the case of CN1CCC[C@H]1c1cccnc1 [nicotine, (S)-nicotine], the “alpha7 receptors less sensitive to nicotine relative to alpha4beta2 nAChRs” value [3] is listed as “at least 50 ×”.

In the case of CN1CCC1c1cccnc1 (stereo not drawn) [trans-3-(1-methylazetidin-2-yl)pyridine], the “agonist activity/potency on α7 receptors (in words)” value (α7 receptors) is reported as “more potent strong agonist” and the “agonist activity/potency on α4β2 receptors (in words)” value (α4β2 receptors) is reported as “more potent strong agonist”.

Source: US9440948B2, “Nicotine compounds and analogs thereof, synthetic methods of making compounds, and methods of use” (priority 2010, dated 2016)
